{"source": "patent US4681890A", "about": "“3,4-dihydrobenzopyran compounds and pharmaceutical composition containing the same” (Kuraray Co., Ltd., priority 1984, dated 1987)", "key": {"Acute toxicity (LD50)": {"assay": "Acute toxicity (LD50)", "conditions": "mouse, in vivo; mice, oral administration", "experimental": "The compounds of this invention show a low toxicity. For instance, Compound 1 and Compound 2 have LD50 of more than 5,000 mg/kg in mice (by oral administration)."}, "[1]": {"tested_on": "Total cholesterol in serum (hypercholesterolemic mice)", "assay": "Blood cholesterol lowering activity (total serum cholesterol in mice given a lipid emulsion)", "format": "in vivo, dd-Male mice", "conditions": "for Serum cholesterol value: p.o., 17 hours after second administration", "experimental": "dd-Male mice weighing about 25 g (one group: 10 mice) were allowed to fast for 12 hours, and thereto was orally administered a lipid emulsion (olive oil 32.7%, cholesterol 2.5%, sodium cholate 1.8%, sucrose 41.9%, and water 21.1%) in a dose of 25.5 ml/kg. A suspension of a test compound in gum arabic was orally administered to the mice twice, i.e. immediately after and […] after the administration of the lipid emulsion. 17 hours after the second administration of test compound, blood was collected from descending abdominal aorta under ether anesthesia. Total cholesterol in serum was measured by COD-p-chlorophenol colorimetry. As a reference compound, there was used Nicomol (chemical name: 2,2,6,6-tetrakis(nicotinoyloxymethyl)cyclohexanol) which is commercially available anticholesteremic agent.\nSerum cholesterol values at 17 hours after the second administration of test compound were compared with the serum cholesterol values in normal mice and hypercholesterolemic mice."}, "[2]": {"tested_on": "ornithine carbamyl transferase (OCT) in serum, ethanol-administered mice", "assay": "Activity against alcoholic hepatic disease (serum OCT activity)", "format": "in vivo, dd-Male mice", "experimental": "dd-Male mice (4 weeks age, weighing about 15 g, one group: 10 mice) were fed with a hyperlipid feed [composition: cholesterol 1.0%, sodium cholate 0.5%, butter 5.0%, sucrose 30.0%, casein 10.0%, and M powder feed (manufactured by Oriental Yeast Co., Ltd., Japan) 53.5%] for 4 weeks. During the feeding, a suspension of a test compound in gum arabic and a 20% aqueous ethanol (15 ml/kg) were orally administered twice a day (morning and evening). After 4 weeks, mice were subjected to laparotomy under ether anesthesia, and blood was collected from the descending abdominal aorta. The blood thus collected was centrifuged at 3,000 r.p.m. for 15 minutes, and the enzymatic activity of ornithine carbamyl transferase (OCT) was measured with OCT-Test Wako (manufactured by Wako Pure Chemical Industries, Ltd., Japan).\nThe OCT activity in serum of mice which were administered test compounds was compared with the OCT activity in serum of normal mice and in control mice which were administered only 20% aqueous ethanol."}, "[3]": {"tested_on": "glutamic oxaloacetic transaminase (GOT) in serum, CCl4-administered mice", "assay": "Activity against carbon tetrachloride-induced hepatic disease (serum GOT)", "format": "in vivo, dd male mice", "experimental": "(§1) To dd male mice weighing 18-20 g (one group: 10 mice) was orally administered a suspension of a test compound in gum arabic twice or three times per day. On the third day, 1% carbon tetrachloride (v/v % in olive oil) was subcutaneously injected at the back of the mice in a dose of 2 ml/kg one hour after the last administration of test compound. 19 hours after the injection of CCl4, a suspendion of a test compound in gum arabic was orally administerd. After one hour, the mice were subjected to laparotomy under ether anesthesia and blood was collected from the descending abdominal aorta. The blood thus collected was centrifuged at 3,000 r.p.m. for 15 minutes. The enzymatic activities of glutamic oxaloacetic transaminase (GOT) and glutamic pyruvic transaminase (GPT) in serum were measured with S.TA-Test Wako (manufactured by Wako Pure Chemical Industries, Ltd., Japan).\n(§2) The activities of GOT and GPT in serum of the mice which were administered test compounds were compared with the GOT and GPT activities in serum of normal mice and 1% CCl4 (v/v % in olive oil)-administered mice."}, "[4]": {"tested_on": "glutamic pyruvic transaminase (GPT) in serum, CCl4-administered mice", "assay": "Activity against carbon tetrachloride-induced hepatic disease (serum GPT)", "format": "in vivo, dd male mice", "experimental": "as §1, §2"}, "[5]": {"tested_on": "blood cholesterol concentration", "conditions": "known agents, background; cited from earlier work"}}, "data": [{"compound": "Cc1c(C)c2c(c(C)c1O)CCC(C)(CCOC(=O)c1cccnc1)O2", "note": "(centres unmarked) [Compound 1, 3,4-dihydro-2-nicotinoyloxyethyl-2,5,7,8-tetramethyl-2H-benzopyran-6-ol]", "values": [{"measurement": "LD50", "setting": "Acute toxicity (LD50)", "result": "> 5000", "unit": "mg/kg"}, {"measurement": "Serum cholesterol value", "setting": "[1]; Table 1, 355 mg/kg, normal 98.6 ± 10.8, hypercholesterolemic 172.2 ± 8.6", "result": "130.7 ± 11.3", "unit": "mg/dL"}]}, {"compound": "Cc1c(C)c2c(c(C)c1OC(=O)c1cccnc1)CCC(C)(CCOC(=O)c1cccnc1)O2", "note": "(centres unmarked) [Compound 2, 3,4-dihydro-2-nicotinoyloxyethyl-2,5,7,8-tetramethyl-2H-benzopyran-6-yl nicotinate]", "values": [{"measurement": "OCT activity unit (mean ± S.E.)", "setting": "[2]; Table 5, 300 mg/kg, p.o., twice a day, 4 weeks, normal 5.1 ± 3.2, ethanol-administered 122.5 ± 17.0", "result": "79.6 ± 12.2", "unit": "unit"}, {"measurement": "GOT activity (average)", "setting": "[3]; Table 6, 300 mg/kg, p.o., normal 87.9 ± 5.3, CCl4-administered 914.3 ± 195.1", "result": "582.9 ± 59.8"}, {"measurement": "GPT activity (average)", "setting": "[4]; Table 6, 300 mg/kg, p.o., normal 74.0 ± 16.3, CCl4-administered 1251.4 ± 285.4", "result": "765.7 ± 84.4"}, {"measurement": "LD50", "setting": "Acute toxicity (LD50)", "result": "> 5000", "unit": "mg/kg"}, {"measurement": "Serum cholesterol value", "setting": "[1]; Table 2, 300 mg/kg, normal 101.0 ± 5.8, hypercholesterolemic 194.3 ± 9.5", "result": "139.6 ± 9.3", "unit": "mg/dL"}]}, {"compound": "Cc1c(C)c2c(c(C)c1OC(=O)c1cccnc1)CCC(C)(CCO)O2", "note": "(centres unmarked) [Compound 3]", "values": [{"measurement": "Serum cholesterol value", "setting": "[1]; Table 4, 355 mg/kg, normal 111.3 ± 8.6, hypercholesterolemic 165.0 ± 13.4", "result": "144.0 ± 10.5", "unit": "mg/dL"}]}, {"compound": "Cc1c(C)c2c(c(C)c1O)CCC(C)(COC(=O)c1cccnc1)O2", "note": "(centres unmarked) [Compound 4]", "values": [{"measurement": "Serum cholesterol value", "setting": "[1]; Table 1, 341 mg/kg, normal 98.6 ± 10.8, hypercholesterolemic 172.2 ± 8.6", "result": "159.4 ± 13.4", "unit": "mg/dL"}]}, {"compound": "Cc1c(C)c2c(c(C)c1OC(=O)c1cccnc1)CCC(C)(COC(=O)c1cccnc1)O2", "note": "(centres unmarked) [Compound 5, 3,4-dihydro-2-nicotinoyloxymethyl-2,5,7,8-tetramethyl-2H-benzopyran-6-yl nicotinate]", "values": [{"measurement": "inhibition of increase of OCT activity induced by alcohol", "setting": "[2]; in words", "result": "excellent inhibition of increase of OCT activity induced by alcohol in a similar degree to that of Compound 2"}, {"measurement": "inhibition of increase of GOT activity induced by CCl4", "setting": "[3]; in words", "result": "excellent inhibition of increase of GOT and GPT activities induced by CCl4 in a similar degree to that of Compound 2"}, {"measurement": "inhibition of increase of GPT activity induced by CCl4", "setting": "[4]; in words", "result": "excellent inhibition of increase of GOT and GPT activities induced by CCl4 in a similar degree to that of Compound 2"}, {"measurement": "Serum cholesterol value", "setting": "[1]; Table 1, 452 mg/kg, normal 98.6 ± 10.8, hypercholesterolemic 172.2 ± 8.6", "result": "127.9 ± 14.2", "unit": "mg/dL"}, {"measurement": "cholesterol lowering activity compared with Nicomol", "setting": "[1]; relative to Nicomol", "result": "about two times higher cholesterol lowering activity than Nicomol"}]}, {"compound": "Cc1c(C)c2c(c(C)c1OC(=O)c1cccnc1)CCC(C)(CCCOC(=O)c1cccnc1)O2", "note": "(centres unmarked) [Compound 6, 3,4-dihydro-2-nicotinoyloxypropyl-2,5,7,8-tetramethyl-2H-benzopyran-6-yl nicotinate]", "values": [{"measurement": "Serum cholesterol value", "setting": "[1]; Table 1, 474 mg/kg, normal 98.6 ± 10.8, hypercholesterolemic 172.2 ± 8.6", "result": "123.8 ± 13.8", "unit": "mg/dL"}]}, {"compound": "Cc1c(C)c2c(c(C)c1OC(=O)c1cccnc1)CCC(C)(CC(COC(=O)c1cccnc1)OC(=O)c1cccnc1)O2", "note": "(centres unmarked) [Compound 7]", "values": [{"measurement": "Serum cholesterol value", "setting": "[1]; Table 3, 571 mg/kg, normal 109.1 ± 9.3, hypercholesterolemic 164.0 ± 12.8", "result": "143.6 ± 10.8", "unit": "mg/dL"}]}, {"compound": "O=C(OCC1(COC(=O)c2cccnc2)CCCC(COC(=O)c2cccnc2)(COC(=O)c2cccnc2)C1O)c1cccnc1", "note": "[Nicomol, 2,2,6,6-tetrakis(nicotinoyloxymethyl)cyclohexanol, reference compound]", "values": [{"measurement": "blood cholesterol concentration lowering", "setting": "[5]", "result": "not necessarily sufficient for lowering blood cholesterol"}, {"measurement": "Serum cholesterol value", "setting": "[1]; Table 1, 640 mg/kg, normal 98.6 ± 10.8, hypercholesterolemic 172.2 ± 8.6", "result": "146.1 ± 14.7", "unit": "mg/dL"}, {"measurement": "Serum cholesterol value", "setting": "[1]; Table 2, 640 mg/kg, normal 101.0 ± 5.8, hypercholesterolemic 194.3 ± 9.5", "result": "139.4 ± 4.4", "unit": "mg/dL"}, {"measurement": "Serum cholesterol value", "setting": "[1]; Table 3, 640 mg/kg, normal 109.1 ± 9.3, hypercholesterolemic 164.0 ± 12.8", "result": "138.3 ± 12.5", "unit": "mg/dL"}, {"measurement": "Serum cholesterol value", "setting": "[1]; Table 4, 640 mg/kg, normal 111.3 ± 8.6, hypercholesterolemic 165.0 ± 13.4", "result": "142.7 ± 11.5", "unit": "mg/dL"}]}, {"compound": "O=C(O)c1cccnc1", "note": "[nicotinic acid]", "values": [{"measurement": "blood cholesterol concentration lowering", "setting": "[5]", "result": "temporarily lowered, but the lowered concentration is not sustained"}]}, {"compound": "O=C(OCC(COC(=O)c1cccnc1)(COC(=O)c1cccnc1)COC(=O)c1cccnc1)c1cccnc1", "note": "[pentaerythritol tetranicotinate]", "values": [{"measurement": "blood cholesterol concentration lowering", "setting": "[5]", "result": "not necessarily sufficient for lowering blood cholesterol"}]}]}
